For data set [1] the following is noted: prior art statement; cited from earlier work.
For a further data set, the system named is breast cancer. To be noted: intramuscular injection, prior art statement; cited from earlier work.
Data set [2] relates to MCF-7 breast cancer cell xenograft. The experiment in a line: antitumor activity on MCF-7 breast cancer cell xenograft model. Type of data set: in vivo, BALB/c nude mice. The following applies: for T/C (%) / TGI (%) / tumor volumn (mm^3) 17th day after grouping: oral, once a day, ARN-810 10/30 mg/kg, I-1 30 mg/kg; for T/C (%) / TGI (%): 17th day after grouping; for tumor volumn (mm^3) 17th day after grouping: Mean ± SEM. How it is done:
Mice were inoculated subcutaneously with 0.36 mg estrogen sustained release tablet (60 days release) on the left shoulder three days before inoculation. When cells were in the logarithmic growth phase, cells were harvested, counted and adjusted to 10×10^7 cells/mL, then an equal volume of Matrigel was added, mixing for inoculation. 0.2 mL MCF-7 tumor cell suspension (10×10^6) was inoculated subcutaneously into the right shoulder of each mouse. On the 7th day after tumor cell inoculation, mice were grouped and administrated once a day, with an average tumor volume of 169 mm^3 and a body weight of 23.33 g. Tumor volume and body weight were measured twice a week after grouping, and the tumor growth rate (T/C) and tumor growth inhibition rate (TGI) were calculated based on the last measuring data on the 17th day after grouping.

For another data set, the target named is T1, CYP 1A2 (Homo sapiens, UniProt P05177).
T1 sequence (P05177 1-516): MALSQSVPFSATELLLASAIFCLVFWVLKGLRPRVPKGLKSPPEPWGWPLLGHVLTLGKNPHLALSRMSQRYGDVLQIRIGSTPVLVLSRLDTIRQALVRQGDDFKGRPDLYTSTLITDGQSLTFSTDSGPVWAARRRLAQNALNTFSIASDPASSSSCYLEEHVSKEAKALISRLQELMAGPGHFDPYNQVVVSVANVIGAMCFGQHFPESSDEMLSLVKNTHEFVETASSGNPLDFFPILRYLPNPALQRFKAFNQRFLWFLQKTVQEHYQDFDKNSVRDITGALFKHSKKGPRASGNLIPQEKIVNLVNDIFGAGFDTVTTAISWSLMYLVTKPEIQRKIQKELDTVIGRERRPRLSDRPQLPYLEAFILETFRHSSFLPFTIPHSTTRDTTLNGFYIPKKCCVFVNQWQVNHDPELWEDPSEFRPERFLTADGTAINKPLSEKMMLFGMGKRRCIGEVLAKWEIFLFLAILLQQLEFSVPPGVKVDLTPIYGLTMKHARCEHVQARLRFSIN
The experiment in a line: inhibition of CYP enzymes 1A2. Type of data set: in vitro ADME.

A short description of data set [3]: plasma protein binding rate (Human). Type of data set: in vitro ADME.
The nature of data set [4]: drug distribution in tissues (plasma, tumor, brain). The class given is in vivo, mice. The following applies: for AUC0-last (nmol · h/kg) brain / AUC0-last (nmol · h/kg) plasma / AUC0-last (nmol · h/kg) tumor: dose 67.3 μmol/kg, 20th day after grouping. How it is done:
On the 20th day after grouping, the sample was collected from plasma, tumor, breast and brain of the mice at four time points (2-3 mice each time point) which was respectively 0.5 hour, 1.5 hours, 6 hours and 24 hours after administration. The blood (0.5 mL) was collected using a 1.5 mL EDTA-K2 anticoagulation tube, immediately centrifuged at 4000 rpm, 4° C. for 10 minutes to prepare plasma, the plasma sample was stored at −80° C. for determination of drug concentration. The tumor was collected using a 2 mL cryotube, and the brain was collected using a 5 mL cryotube, the samples were immediately put into liquid nitrogen for quike freeze. All samples were stored at −80° C. for determination of drug concentration after sampling. The result was converted based on corresponding AUC to compare the drug distribution.

In the next data set the target is CYP 2C19 (Homo sapiens, UniProt P33261). The experiment in a line: inhibition of CYP enzymes 2C19. The class given is in vitro ADME.
Sequence of CYP 2C19 (P33261 whole entry): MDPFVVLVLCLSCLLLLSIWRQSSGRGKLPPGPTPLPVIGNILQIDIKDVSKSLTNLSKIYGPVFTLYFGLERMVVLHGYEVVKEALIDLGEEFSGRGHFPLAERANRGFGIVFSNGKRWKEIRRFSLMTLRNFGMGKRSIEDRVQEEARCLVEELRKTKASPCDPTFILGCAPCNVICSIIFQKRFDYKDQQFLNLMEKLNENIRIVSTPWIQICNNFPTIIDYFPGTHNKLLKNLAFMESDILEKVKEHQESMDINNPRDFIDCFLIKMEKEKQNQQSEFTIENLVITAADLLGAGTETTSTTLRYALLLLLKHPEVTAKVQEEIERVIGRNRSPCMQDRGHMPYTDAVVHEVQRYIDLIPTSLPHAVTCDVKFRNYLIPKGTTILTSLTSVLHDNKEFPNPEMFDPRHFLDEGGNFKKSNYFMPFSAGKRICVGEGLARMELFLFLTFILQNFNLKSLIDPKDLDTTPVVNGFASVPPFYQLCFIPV
A short description of data set [5]: in vivo PK properties (cassette PK). To be noted: plasma; for AUC(0-t): read-out: AUC0-last (nm/hr); for Vd: read-out: Vdss.
The next data set addresses CYP 3A4 (Homo sapiens, UniProt P08684). The experiment in a line: inhibition of CYP enzymes 3A4. The class given is in vitro ADME.
Another data set has as its target CYP 2D6 (Homo sapiens, UniProt P10635). The experiment in a line: inhibition of CYP enzymes 2D6. Type of data set: in vitro ADME.
Data set [6] is described as follows: plasma protein binding rate (CD-1 mouse). The class given is in vitro ADME.
A further data set deals with CYP 2C9 (Homo sapiens, UniProt P11712). The experiment in a line: inhibition of CYP enzymes 2C9. The class given is in vitro ADME.
Sequence of CYP 2C9 (P11712 whole entry): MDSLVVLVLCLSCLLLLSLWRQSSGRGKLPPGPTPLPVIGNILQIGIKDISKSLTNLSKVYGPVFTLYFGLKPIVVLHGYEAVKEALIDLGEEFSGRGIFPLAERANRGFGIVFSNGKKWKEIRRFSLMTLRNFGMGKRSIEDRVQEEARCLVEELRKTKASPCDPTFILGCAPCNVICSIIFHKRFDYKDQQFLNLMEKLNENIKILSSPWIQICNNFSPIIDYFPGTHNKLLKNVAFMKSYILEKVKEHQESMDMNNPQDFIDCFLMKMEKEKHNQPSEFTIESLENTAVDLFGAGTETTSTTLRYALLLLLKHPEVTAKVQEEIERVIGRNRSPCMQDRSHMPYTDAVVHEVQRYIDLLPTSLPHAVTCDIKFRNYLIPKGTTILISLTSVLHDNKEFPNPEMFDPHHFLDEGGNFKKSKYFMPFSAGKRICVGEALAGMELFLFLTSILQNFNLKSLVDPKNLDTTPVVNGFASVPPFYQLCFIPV
The subject of another data set is MCF-7 cells. The experiment in a line: MCF-7 cell proliferation inhibition assay. The following applies: Homo sapiens, MCF7, 144 h; MCF-7 cells, 6 days incubation, CellTiter-Glo; read-out: anti-proliferation in MCF-7 cells. The class given is cell-based. How it is done:
Experimental Reagent: RPMI 1640 medium, fetal bovine serum, Promega CellTiter-Glo reagent. The cell line MCF-7 was purchased from The European Collection of Authenticated Cell Cultures (ECACC). Envision Multilabel Reader (PerkinElmer). Experimental Method: […] The cell plate was placed in a carbon dioxide incubator overnight. […] The cell plate was incubated in a carbon dioxide incubator for 6 days. Promega CellTiter-Glo reagent was added to the cell plate at 25 μL per well, cells were incubated for 10 minutes at room temperature to stabilize the luminescence signal, which was measured using PerkinElmer Envision Multilabel Reader. Data Analysis: […] (Model 205 in XLFIT5, iDBS)
(Cellular ATP, detected with luciferase, serves as a proxy for viable cell number.)

Read-outs that look alike come from different tables or passages of the source.

Sequence of CYP 2D6 (P10635 whole entry): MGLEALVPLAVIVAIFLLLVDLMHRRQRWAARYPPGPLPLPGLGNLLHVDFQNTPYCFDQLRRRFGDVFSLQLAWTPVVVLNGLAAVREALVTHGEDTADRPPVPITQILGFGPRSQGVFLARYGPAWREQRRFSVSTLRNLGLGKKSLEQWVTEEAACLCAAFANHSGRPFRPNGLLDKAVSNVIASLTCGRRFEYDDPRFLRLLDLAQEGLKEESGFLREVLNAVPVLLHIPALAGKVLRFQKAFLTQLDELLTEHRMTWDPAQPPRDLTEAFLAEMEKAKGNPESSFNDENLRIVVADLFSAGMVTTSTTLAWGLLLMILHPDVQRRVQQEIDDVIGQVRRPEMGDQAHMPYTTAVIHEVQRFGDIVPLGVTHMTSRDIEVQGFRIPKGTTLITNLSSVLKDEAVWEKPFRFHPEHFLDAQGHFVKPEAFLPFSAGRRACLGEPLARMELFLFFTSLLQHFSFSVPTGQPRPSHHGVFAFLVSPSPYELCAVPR
Sequence of CYP 3A4 (P08684 whole entry): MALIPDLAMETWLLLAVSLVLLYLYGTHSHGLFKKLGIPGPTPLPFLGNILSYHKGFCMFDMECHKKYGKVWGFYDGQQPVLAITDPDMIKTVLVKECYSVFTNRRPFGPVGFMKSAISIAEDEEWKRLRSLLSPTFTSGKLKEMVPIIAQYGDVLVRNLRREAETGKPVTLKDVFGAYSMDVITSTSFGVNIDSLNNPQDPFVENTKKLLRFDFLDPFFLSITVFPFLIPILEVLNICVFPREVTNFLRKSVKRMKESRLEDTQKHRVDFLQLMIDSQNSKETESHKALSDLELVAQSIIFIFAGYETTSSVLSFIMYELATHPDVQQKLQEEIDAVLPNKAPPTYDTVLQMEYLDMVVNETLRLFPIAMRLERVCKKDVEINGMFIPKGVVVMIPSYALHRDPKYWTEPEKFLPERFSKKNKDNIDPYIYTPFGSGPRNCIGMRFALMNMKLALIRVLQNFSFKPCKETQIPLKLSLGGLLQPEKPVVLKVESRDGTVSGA

`C[C@]12CC[C@@H]3c4ccc(O)cc4C[C@@H](CCCCCCCCC[S+]([O-])CCCC(F)(F)C(F)(F)F)[C@H]3[C@@H]1CC[C@@H]2O` (stereo partly drawn) [fulvestrant]: the oral bioavailability entry in data set [1] was “zero”. Besides, in the data set on breast cancer, the “breast cancer patients showing clinical response” value is listed as “about 50%”.

Regarding `CC/C(=C(/c1ccc(/C=C/C(=O)O)cc1)c1cc2ccccc2[nH]1)c1ccc(F)cc1Cl` [Compound I-1], the “antitumor activity compared with ARN-810” value in data set [2] (oral I-1 30 mg/kg versus oral ARN-810 10/30 mg/kg) is on record as “superior”. Also, in data set [2], the “T/C (%)” value turned out to be 30.1%, the “TGI (%)” value came out at 93.6% and the “tumor volumn (mm^3) 17th day after grouping” value is on record as 201 ± 27 mm^3. This molecule registered an IC50 at CYP 1A2 of 25.5 µM. This molecule also gave a fraction unbound in [3] of 0.028. Further, the “distribution in brain tissue compared with ARN-810” value in [4] (brain tissue) is given as “much better”. Further, in [4], the “AUC0-last (nmol · h/kg) brain” value amounted to 43167 nmol·h/kg, the “AUC0-last (nmol · h/kg) plasma” value turned out to be 118937 nmol·h/kg and the “AUC0-last (nmol · h/kg) tumor” value was found to be 55487 nmol·h/kg. The “distribution in tumor tissue compared with ARN-810” value in data set [4] (tumor tissue) was “much better”. The same molecule came in with an IC50 at CYP 2C19 of 40.4 µM. For the same molecule, in data set [5] (iv, 1 mg/kg, i.V. 1 mpk), the C0 is 3480 nM, the clearance is 3.61 mL/min/kg, the half-life is 2.81 h and the AUC(0-t) came to 10.4 µM·h. For the same molecule, in [5] (iv, 1 mg/kg, i.V. 1 mpk), the Vd turned out to be 0.992 L/kg. Moreover, in data set [5] (po, 2.5 mg/kg, P.O 2.5 mpk), the Cmax is 2150 nM, the Tmax is 3.33 h, the bioavailability was 70.6% and the half-life was 3.18 h. Also, the AUC(0-t) in data set [5] (po, 2.5 mg/kg, P.O 2.5 mpk) is 18.3 µM·h. Besides, at CYP 3A4, the IC50 amounted to 25.1 µM. The same molecule yielded an IC50 on CYP 2D6 of 43.4 µM. In data set [6], this molecule gave a fraction unbound of 0.012. This molecule also returned an IC50 against CYP 2C9 of 10.1 µM. Also, the IC50 with MCF-7 cells was determined as 0.0385 µM.

In the case of `CC/C(=C(/c1ccc(/C=C/C(=O)O)cc1)c1ccc2[nH]ncc2c1)c1ccc(F)cc1Cl` [ARN-810, reference compound], in data set [2], the “T/C (%)” value is listed as 43.4%, the “TGI (%)” value is 75.7% and the “tumor volumn (mm^3) 17th day after grouping” value is listed as 290 ± 38 mm^3. In addition, in data set [4], the “AUC0-last (nmol · h/kg) brain” value stood at 3490 nmol·h/kg, the “AUC0-last (nmol · h/kg) plasma” value was found to be 33545 nmol·h/kg and the “AUC0-last (nmol · h/kg) tumor” value stood at 11368 nmol·h/kg. Also, in data set [5] (iv, 1 mg/kg, i.V. 1 mpk), the C0 worked out at 1640 nM, the clearance is 18.9 mL/min/kg, the half-life is 1.35 h and the AUC(0-t) worked out at 1.99 µM·h. Further, the Vd in [5] (iv, 1 mg/kg, i.V. 1 mpk) came out at 1.93 L/kg. Also, in data set [5] (po, 2.5 mg/kg, P.O 2.5 mpk), the Cmax turned out to be 924 nM, the Tmax stood at 0.417 h, the bioavailability amounted to 66% and the half-life is 3.49 h. Moreover, the AUC(0-t) in [5] (po, 2.5 mg/kg, P.O 2.5 mpk) turned out to be 3.28 µM·h.

As usually defined, the fraction unbound is free concentration divided by total concentration. A higher fraction unbound goes with weak binding. A word on the clearance: it is the volume of plasma or blood freed of the substance per unit of time. Read a high clearance as a high capacity for elimination. By half-life is commonly meant the time needed for the level to fall by half in the phase considered. A low value points to fast loss. By Cmax is commonly meant the highest concentration seen after dosing. As a reminder, the Tmax is the time at which the peak concentration occurs. The term bioavailability denotes the share of a dose that reaches the circulation, judged against a reference dose that is usually intravenous. Lower therefore signals poor availability.

These data come from patent publication US10519143B2, “Substituted-indole-compounds as estrogen receptor down-regulators” (LUOXIN PHARMACEUTICAL (SHANGHAI) CO., LTD, priority 2016, dated 2019).
